The record followed here is patent publication US11261192B2, “Substituted 1,2-dihydro-3H-pyrazolo[3,4-D]pyrimidin-3-ones” (Recurium IP Holdings, LLC, priority 2018, dated 2022).

By IC50 is commonly meant the concentration that gives 50% inhibition.

Read-outs that look alike come from different tables or passages of the source.

The target of one assay is Wee1 kinase (Homo sapiens, UniProt P30291). The assay can be described thus: Wee1 Binding Assay (FRET). The procedure: Wee 1 kinase was determined by using Fluorescence Resonance Energy Transfer (FRET) assay. […] The plate was shaken for 30 seconds, incubated for 60 min at RT, and recorded on fluorescence plate reader.
Wee1 kinase, sequence (P30291 whole entry): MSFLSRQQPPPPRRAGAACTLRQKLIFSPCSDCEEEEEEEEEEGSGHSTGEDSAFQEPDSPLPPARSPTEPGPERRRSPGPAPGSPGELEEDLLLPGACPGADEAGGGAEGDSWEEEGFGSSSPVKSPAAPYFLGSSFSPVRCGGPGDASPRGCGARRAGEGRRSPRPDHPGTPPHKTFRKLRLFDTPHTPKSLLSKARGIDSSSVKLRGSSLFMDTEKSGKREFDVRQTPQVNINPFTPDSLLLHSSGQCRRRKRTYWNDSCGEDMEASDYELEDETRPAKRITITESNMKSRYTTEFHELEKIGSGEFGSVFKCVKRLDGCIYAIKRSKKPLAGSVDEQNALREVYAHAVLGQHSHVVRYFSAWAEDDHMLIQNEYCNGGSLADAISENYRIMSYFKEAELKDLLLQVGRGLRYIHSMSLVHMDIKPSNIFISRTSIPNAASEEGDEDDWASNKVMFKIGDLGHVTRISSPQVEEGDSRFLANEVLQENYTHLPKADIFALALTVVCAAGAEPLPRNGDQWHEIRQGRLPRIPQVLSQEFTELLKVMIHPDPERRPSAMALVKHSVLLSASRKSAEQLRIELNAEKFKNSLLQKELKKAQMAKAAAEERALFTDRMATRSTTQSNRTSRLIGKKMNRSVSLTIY
Another assay concerns H23 cells. Briefly: H23 Cellular Proliferation Assay (CellTiter-Glo). The assay is classed as cell-based. The settings on record: Homo sapiens, NCI-H23, 96 h, 4 days, read-out: H23 CTG IC50. As for the experimental part:
H23 Cellular Proliferation Assay
Cells were treated with compounds diluted in DMSO and a 9 point 5-fold serial dilutions. Plates were placed in 37° C., 5% CO2 for to incubate for 4 days. Before they were developed by adding 100 μL of CellTiter-Glo reagent (Promega) to the assay plate, plates were shaken briefly for 2 mins and allowed to incubate at rt for 10 mins. The plates are read with a M5e plate reader according to CellTiter-Glo protocol. The GraphPad Prism software is used to get IC50 values.
(In general: Cellular ATP, detected with luciferase, serves as a proxy for viable cell number.)

Where [1] appears, read: FRET, Wee1 kinase 2 nM, tracer 178 50 nM, 60 min at RT, read-out: Wee1 enzymatic IC50.

Regarding `C=CCn1c(=O)c2cnc(Nc3ccc(N4CCNCC4)cc3)nc2n1-c1ccc2c(n1)C(F)(F)CC2` [Example 7, 2-Allyl-1-(7,7-difluoro-6,7-dihydro-5H-cyclopenta[b]pyridin-2-yl)-6-((4-(piperazin-1-yl)phenyl)amino)-1,2-dihydro-3H-pyrazolo[3,4-d]pyrimidin-3-one], the IC50 on Wee1 kinase (setting [1]) was under 10 nM; with H23 cells, over 1000 nM.
Consider `C=CCn1c(=O)c2cnc(Nc3ccc(N4CCN(C)CC4)cc3)nc2n1-c1ccc2c(n1)C(F)(F)CC2` [Example 8, 2-Allyl-1-(7,7-difluoro-6,7-dihydro-5H-cyclopenta[b]pyridin-2-yl)-6-((4-(4-methylpiperazin-1-yl)phenyl)amino)-1,2-dihydro-3H-pyrazolo[3,4-d]pyrimidin-3-one], for which the values for the IC50 at Wee1 kinase and with H23 cells were under 10 nM and 100 to 1000 nM, respectively.
Consider `C=CCn1c(=O)c2cnc(Nc3ccc(N4CCN(C)CC4)cc3)nc2n1-c1cn2c(n1)COCC2` [Example 32, 2-allyl-1-(5,6-dihydro-8H-imidazo[2,1-c][1,4]oxazin-2-yl)-6-((4-(4-methylpiperazin-1-yl)phenyl)amino)-1,2-dihydro-3H-pyrazolo[3,4-d]pyrimidin-3-one], for which the IC50 at Wee1 kinase (setting [1]) is 10 to 100 nM; in the assay with H23 cells, over 1000 nM.
On to `C=CCn1c(=O)c2cnc(Nc3ccc(N4CCN(C)CC4)cc3)nc2n1-c1ccc2c(n1)C(=O)N(C)C2` [Example 33, 2-allyl-1-(6-methyl-7-oxo-6,7-dihydro-5H-pyrrolo[3,4-b]pyridin-2-yl)-6-((4-(4-methylpiperazin-1-yl)phenyl)amino)-1,2-dihydro-3H-pyrazolo[3,4-d]pyrimidin-3-one], for which the IC50 was 10 to 100 nM on Wee1 kinase (setting [1]) and over 1000 nM in the assay with H23 cells.
